In patent publication US7563819B1, “Esters of 5-aminolevulinic acid as photosensitizing agents in photochemotherapy” (Photocure ASA, priority 2000, dated 2009):
Entries after “also recorded” stand apart in the source; their conditions may differ.

Legend:
WiDr cells = test: Measurement of porphyrin formation in cell culture in vitro; format: cell-based; conditions: 4 h incubation; for POTENCY (Relative ability to induce porphyrin formation): 0.001-1 mM, relative to ALA = 1; for potency in inducing cellular porphyrin formation relative to ALA: fold versus ALA; for ALA concentration giving the same porphyrin formation as 0.001 mM ester: ester at 0.001 mM
Procedure: The test compounds were dissolved in DMSO to a concentration of 100 mM (stock solution). Appropriate concentrations were obtained by dilution of the stock solutions with phosphate-buffered saline (PBS) or culture medium.
WiDr cells, derived form a primary adenocarcinoma of the rectosigmoid colon, were subcultured in RPMI 1640 medium (Gibco) containing 10% fetal calf serum, 100 U/ml penicillin, 100 μg/ml streptomycin and 1% glutamine. Cells were split 1:100 twice a week, and maintained at 37° C. and 5. % CO2 in a humid environment.
5×10^5 WiDr cells in 2 ml of RPMI medium as described in the previous paragraph were added to each well in 6-well plastic tissue-culture plates (Nunc) and left for 48 hr at 37° C. and 5% CO2 in a humid environment for proper attachment to the substratum. The cells were then washed twice with RPMI 1640-medium without serum, followed by the addition to the wells of the appropriate dilutions of the test compounds in 2 ml of fresh culture medium to final concentrations of 0.001, 0.01, 0.1 and 1 mM in duplicate. The cells were incubated at 37° C. for four hours.
After treatment as described in the paragraph “treatment conditions” the cells were washed twice with PBS and brought into a solution of 1M HClO4 in 50% MeOH by scraping the cells off the substratum by means of a Costar cell scraper. Cell debris was removed by centrifugation. The porphyrin content of each sample was determined fluorometrically using a Perkin Elmer LS50B spectrofluorimeter (excitation at 407 nm, emission was measured at 606 nm using a long pass cut-off filter (530 nm) on the emission side). The fluorescence in each sample was calculated relative to the protein content in control cells as measured by the Bradford method.

murine skin = test: Porphyrin formation (skin fluorescence) after topical application onto murine skin; format: in vivo, Female Balb/c athymic nude mice; conditions: topical cream on nude mouse skin, 1% (w/w), except compounds 16, 29, 30, 31 at 3% and 17-19 at 10%
Procedure: The test compounds were formulated in Unguentum Merck (cream base available from Merck, consisting of silicon dioxide, paraffin liq., vaseline, album, cetostearol, polysorbat. 40, glycerol monostearate, Miglyol®812 (a mixture of plant fatty acids), polypropyleneglycol, and purified water) to the desired concentration. Concentrations are given as % (w/w) calculated as hydrochlorides. The formulations were prepared the day before the experiment commenced and stored in the refrigerator until the day of use.
Female Balb/c athymic nude mice, weighing about 22 g, obtained from the Department of Laboratory Animals, The Norwegian Radium Hospital (Montebello, Oslo, Norway) were used in the studies.
Three mice per group was used. Each mouse received 0.05-0.1 g of formulation topically applied at the right flank of the body, evenly distributed and covered with a dressing (Opsite Flexigrid; Smith and Nephew Medical Ltd., Hull, England). The fiber point measuring device consisted of a bundle of optical fibers connected to a spectrofluorimeter which produced the excitation light of 407 nm. The excitation light, which is able to penetrate 0.1-0.5 mm into the tissue, was led through half of the fibers to the mouse skin. The resulting emission fluorescence spectrum (550-750) nm was collected and led through the remaining fibers into a photomultiplier for quantification.
After application of the cream formulation, the fluorescence spectrum from porphyrins in the skin was measured by the fiber-optical method at different intervals of time after administration.
The fluorescence intensity varied from experiment to experiment. Therefore 1% (w/w) hexyl 5-aminolevulinate-HCl was included in each experiment as an internal control.

Row | Compound | POTENCY (Relative ability to induce porphyrin formation) (WiDr cells) | skin fluorescence level after topical application (murine skin) | potency in inducing cellular porphyrin formation relative to ALA (WiDr cells) | other results
1 | NCC(=O)CCC(=O)O [ALA, 5-aminolevulinic acid] | 1 |  |  | 
2 | CCCCC(C)OC(=O)CCC(=O)CN.Cl (stereo not shown) [Compound 1, 1-methyl-pentyl 5-amino-4-oxopentanoate Hydrochloride] | 3 | intermediate fluorescence levels |  | efficiency in inducing porphyrin formation compared with ALA (WiDr cells; at low concentrations): only slightly better than ALA
3 | CC(C)c1ccc(COC(=O)CCC(=O)CN)cc1.Cl [Compound 2, 4-Isopropylbenzyl 5-amino-4-oxopentanoate Hydrochloride] | 200 | intermediate levels of fluorescence | approximately 200 times | 
4 | Cc1ccc(COC(=O)CCC(=O)CN)cc1.Cl [Compound 3, 4-Methylbenzyl 5-amino-4-oxopentanoate Hydrochloride] | 200 | high and similar levels of fluorescence | approximately 200 times | 
5 | Cl.NCC(=O)CCC(=O)OCc1ccccc1 [Compound 4, Benzyl 5-amino-4-oxopentanoate hydrochloride] | 100-600 | high levels of fluorescence |  | efficiency in inducing cellular porphyrin synthesis compared with ALA (WiDr cells): considerably more efficient than ALA; ALA concentration giving the same porphyrin formation as 0.001 mM ester (WiDr cells): 0.6 mM
6 | Cl.NCC(=O)CCC(=O)OCCc1ccccc1 [Compound 5, 2-Phenylethyl 5-amino-4-oxopentanoate Hydrochloride] | 500 |  |  | efficiency in inducing cellular porphyrin synthesis compared with ALA (WiDr cells): considerably more efficient than ALA; ALA concentration giving the same porphyrin formation as 0.001 mM ester (WiDr cells): 0.4 mM; skin fluorescence level after topical application (murine skin; Hydrochloride): low levels of fluorescence; skin fluorescence level after topical application (murine skin; listed as 2-phenyl-ethyl 5-aminolevulinate, Hydrochloride): relatively modest fluorescence levels
7 | CCCCCCOC(=O)CCC(=O)CN.Cl [Compound 6, hexyl 5-aminolevulinate-HCl, reference compound] | 100 | highest fluorescence; also recorded: high and similar levels of fluorescence | approximately 100 times | 
8 | Cl.NCC(=O)CCC(=O)OC1CCCCC1 [Compound 7, Cyclohexyl 5-amino-4-oxopentanoate Hydrochloride] | 1 | low levels of fluorescence |  | efficiency in inducing porphyrin formation compared with ALA (WiDr cells; at higher concentrations): less effective than ALA; efficiency in inducing porphyrin formation compared with ALA (WiDr cells; at low concentrations): only slightly more efficient than ALA
9 | CC(C)CCCOC(=O)CCC(=O)CN.Cl [Compound 8, 4-Methyl-1-pentyl 5-amino-4-oxopentanoate Hydrochloride] | 100 | high fluorescence levels | approximately 100 times | 
10 | Cl.NCC(=O)CCC(=O)OCc1ccc(C(F)(F)F)cc1 [Compound 9, 4-(Trifluoromethyl)benzyl 5-amino-4-oxopentanoate Hydrochloride] | 200 | high fluorescence levels | approximately 200 times | 
11 | CC(C)(C)c1ccc(COC(=O)CCC(=O)CN)cc1.Cl [Compound 10, 4-t-Butylbenzyl 5-amino-4-oxopentanoate Hydrochloride] | 200 | Intermediate fluorescence levels | approximately 200 times | 
12 | Cl.NCC(=O)CCC(=O)OCc1ccc([N+](=O)[O-])cc1 [Compound 11, 4-Nitrobenzyl 5-amino-4-oxopentanoate Hydrochloride] | 200 | high levels of fluorescence | approximately 200 times | 
13 | CCCC(CC)OC(=O)CCC(=O)CN.Cl (stereo not shown) [Compound 12, 3-Hexyl 5-amino-4-oxopentanoate Hydrochloride] |  | gave porphyrin formation |  | 
14 | CCCC(C)COC(=O)CCC(=O)CN.Cl (stereo not shown) [Compound 13, 2-Methyl-1-pentyl 5-amino-4-oxopentanoate Hydrochloride] |  | gave porphyrin formation |  | 
15 | Cl.NCC(=O)CCC(=O)OCCCCc1ccccc1 [Compound 14, 4-Phenyl-1-butyl 5-amino-4-oxopentanoate Hydrochloride] |  | only low fluorescence levels |  | 
16 | Cl.NCC(=O)CCC(=O)OCc1ccc(F)cc1 [Compound 15, 4-Fluorobenzyl 5-amino-4-oxopentanoate Hydrochloride] |  | Slightly lower levels |  | 
17 | Cl.NCC(=O)CCC(=O)OCc1ccccc1F [Compound 17, 2-Fluorobenzyl 5-amino-4-oxopentanoate Hydrochloride] |  | intermediate/high activities |  | 
18 | Cl.NCC(=O)CCC(=O)OCc1c(F)c(F)c(F)c(F)c1F [Compound 18, 2,3,4,5,6-Pentafluorobenzyl 5-amino-4-oxopentanoate Hydrochloride] |  | intermediate/high activities |  | 
19 | Cl.NCC(=O)CCC(=O)OCc1ccc(Cl)cc1 [Compound 19, 4-Chlorobenzyl 5-amino-4-oxopentanoate Hydrochloride] |  | high fluorescence levels |  | 
20 | Cl.Cl.NCC(=O)CCC(=O)OCc1cccnc1 [Compound 26, 3-Pyridinylmethyl 5-amino-4-Oxopentanoate Dihydrochloride] |  | intermediate fluorescence |  | 
21 | Cl.NCC(=O)CCC(=O)OCc1ccc(-c2ccccc2)cc1 [Compound 27, 4-Diphenylmethyl 5-amino-4-oxopentanoate Hydrochloride] |  | relatively low fluorescence |  | 
22 | COc1ccc(COC(=O)CCC(=O)CN)cc1.Cl [Compound 28, 4-Methoxybenzyl 5-amino-4-oxopentanoate Hydrochloride] |  | intermediate fluorescence |  | 
23 | CC(=O)OC(C)OC(=O)NCC(=O)CCC(=O)OCc1ccccc1 (stereo not shown) [Compound 30, Benzyl 5-[[1-(acetyloxy)ethoxy]carbonyl]amino-4-oxopentanoate] |  | intermediate/high fluorescence |  | 
